Experimental findings from patent publication US20160000766A1, “HDAC INHIBITORS TO TREAT CHARCOT-MARIE-TOOTH DISEASE” (VIB VZW, priority 2010, published 2016) are described below.

In assay [1] the test system is symptomatic HSPB1^S135F-expressing mice. Kind of assay: Innervation level of the gastrocnemius muscle (neuromuscular junctions) in treated mice. Type of assay: in vivo, mouse. The note with it: treated for three weeks; eight-month-old mice. On the procedure:
(§1) FIG. 9: TSA or tubastatin A treatment leads to muscle reinnervation and rescues axonal transport defects. Panels a and b: Effect of vehicle (DMSO), TSA or tubastatin A treatment on the innervation level of the gastrocnemius muscle in symptomatic, eight-month-old HSPB1^S135F-expressing mice. The number of visible neuromuscular junctions (NMJs) per axon in each field of view (Panel a) and the relative quantity of denervated neuromuscular junctions (Panel b) were determined after staining gastrocnemius muscle with antibodies against α-bungarotoxin and neurofilament heavy chain. n=2 or 3 mice per condition. ***P<0.0001. Panels c and d: Axonal transport of mitochondria measured in cultured DRG neurons isolated from symptomatic HSPB1^S135F-expressing mice after three weeks of treatment with TSA or tubastatin A. Total number (Panel c) and number of moving mitochondria (Panel d) were quantified (per 200 seconds and 100 μm). n=20 to 25 cells isolated from three different mice in each condition. *P<0.05; ***P<0.0001. One-way ANOVA was used to analyze the data. Tukey's HSD test was used for post hoc analysis in Panels a through d. Data are presented as means±s.e.m.
(§2) It was also observed that the loss of acetylcholine-receptor clusters at the end plates in gastrocnemius muscle was restored (FIG. 9, Panel a) and that the level of denervation of the remaining neuromuscular junctions was decreased (FIG. 9, Panel b). These observations indicate that increasing acetylated α-tubulin abundance in peripheral nerves leads to re-innervation of muscles.

For assay [2] the test system is unchanged. Description: Nerve conduction studies (CMAP and SNAP amplitudes) in treated mice. The format is in vivo, mouse. The note with it: treated for three weeks; TSA 10 mg per kg, tubastatin A 25 mg per kg. On the procedure:
(§3) FIG. 8: HDAC6 inhibition rescues axonal transport defects and restores the CMT2 phenotype. Panels a and b: Axonal transport of mitochondria measured in DRG neurons isolated from ten-month-old HSPB1^S135F-expressing mice after 12 hours of treatment with TSA (0.4 μM), tubacin (2 μM), tubastatin A (1 μM) or an equivalent amount of DMSO. Total number of (Panel a) and number of moving (Panel b) mitochondria (per 200 seconds and per 100 μm) were quantified. n=20 to 30 cells isolated from three different mice for each condition. *P<0.05; **P<0.01; ***P<0.0001. Panels c and d: Western blots of sciatic nerve and spinal cord extracts from symptomatic eight-month-old HSPB1^S135F-expressing mice treated daily for three weeks with TSA (10 mg per kg body weight; Panel c) or tubastatin A (25 mg per kg body weight; Panel d) probed against acetylated tubulin. Equal loading was confirmed with α-tubulin staining. n=3. Panels e and f: Quantifications of optical density (OD) of acetylated tubulin on Western blots of sciatic nerve (Panel e) and spinal cord (Panel f) extracts of symptomatic HSPB1^S135F-expressing mice treated with TSA or tubastatin A. n=3. Panel g: Motor performance on an accelerating rotarod of HSPB1^S135F-expressing mice treated for three weeks with TSA or tubastatin A. Panels h and i: Effect of the TSA or tubastatin A treatments of HSPB1^S135F-expressing mice on the amplitudes of CMAPs (Panel h) or SNAPs (Panel i). n=3 to 6 mice per group. […]; **P<0.001; ***P<0.0001. One-way ANOVA was used to analyze the data in Panels a, b, and e through i. Data are presented as means±s.e.m.
Nerve conduction studies are routinely done on CMT patients to discriminate demyelinating (type 1) from axonal (type 2) forms, as well as to assess whether patients show either a mixed sensorimotor (CMT2) or a pure motor neuropathy (distal HMN). Therefore, nerve conduction studies were performed on transgenic HSPB1 mice using sub-dermal electrodes, either at the level of the gastrocnemius muscle to measure compound muscle action potentials (CMAPs), or in the distal end of the tail to record sensory nerve action potentials (SNAPs). […] The decrease in CMAP amplitudes in function of age was more pronounced in HSPB1^P182L compared to HSPB1^S135F mice as assessed by the slopes (slopeS135F=−4.66±0.32; slopeP182L=−6.23±0.93; P=0.004; FIG. 4, Panel c). CMAP latencies were unaffected, confirming the axonal nature of the motor neuropathy in both mutant HSPB1 lines (FIG. 4, Panel d).
It was also observed that the loss of acetylcholine-receptor clusters at the end plates in gastrocnemius muscle was restored (FIG. 9, Panel a) and that the level of denervation of the remaining neuromuscular junctions was decreased (FIG. 9, Panel b). […]

Assay [3] shares this test system. Description: Motor performance on accelerating rotarod of treated HSPB1^S135F-expressing mice. Type of assay: in vivo, mouse. Conditions: for motor performance (accelerating rotarod): treated for three weeks, TSA 10 mg per kg, tubastatin A 25 mg per kg; for CMT2 phenotype at the behavioral and electrophysiological levels: treatment of mutant HSPB1 mice (Example 9). As to the method: as §3
Next, general motor performance was assessed using an accelerating rotarod. All mice could stay on the rotarod (300 seconds) until the age of six months. From that age on, both mutant HSPB1 lines started to fail on the rotarod test and a progressive reduction in performance was observed over time (P<0.0001; FIG. 1, Panel c).
as §2

Assay [4] relates to DRG neurons isolated from symptomatic HSPB1^S135F mice. Description: Axonal transport of mitochondria in cultured DRG neurons treated in vitro with HDAC inhibitors. Conditions: for number of moving mitochondria / total numbers of mitochondria / effectiveness on total and moving mitochondria relative to TSA: 12 hours treatment; for number of moving mitochondria / total numbers of mitochondria: TSA 0.4 μM, tubacin 2 μM, tubastatin A 1 μM, vs DMSO; for effectiveness on total and moving mitochondria relative to TSA: FIG. 8, Panels a and b. Type of assay: cell-based, mouse. As to the method:
(§4) Panels a and b: Axonal transport of mitochondria was assessed in DRG neurons isolated from symptomatic (eight-month-old) HSPB1^S135F mice after 12 hours incubation with various concentrations (0, 0.25, 0.50 or 1.00 μM) of Tubastatin A. Panel a: Quantification of the total number of mitochondria at various concentrations of Tubastatin A. One-way ANOVA. P>0.05. Panel b: Quantification of the number of moving mitochondria at different concentrations of Tubastatin A. One-way ANOVA. * P<0.05; ** P<0.001; P<0.0001. Panel c: Quantification of the integrated density of the acetylated tubulin signal along neurites at various concentrations of Tubastatin A. n=25 to 30 cells/condition. One-way ANOVA. * P<0.05.
as §3
(§5) It has previously been shown that the intracellular distribution of specific cargoes, such as mutant HSPB1 itself, but also neurofilament and p150, was disturbed in cortical neurons transfected with HSPB1^P182L (ref. 12). In order to study effects of mutant HSPB1 on axonal transport, dorsal root ganglion (DRG) neurons from adult transgenic mice were isolated and analyzed mitochondrial transport in these neurons after two days in culture. Mitochondrial movement was visualized by loading DRG neurons with a selective mitochondrial marker (MITOTRAcKER®) and by live video imaging (FIG. 6, Panel a). Kymographs resulting from time compression of video images were used to quantify the total number of mitochondria present in the neurites and to discriminate antero- and retrogradely moving from stationary mitochondria (FIG. 6, Panel a, right-side panels).
Treatment of DRG neurons isolated from symptomatic HSPB1^[…]-expressing mice with TSA, tubacin or tubastatin A increased total numbers of mitochondria FIG. 8, Panel a) and restored the number of moving mitochondria (FIG. 8, Panel b).

For another assay, the system named is acetylated α-tubulin. Description: Western blots of acetylated α-tubulin in sciatic nerve and spinal cord of treated mice. Type of assay: in vivo, mouse. The note with it: daily for 21 days, TSA 10 mg per kg, tubastatin A 25 mg per kg; for acetylated α-tubulin amounts in peripheral nerves: sciatic nerve. As to the method:
as §3
Next, symptomatic HSPB1^S135F-expressing mice were treated for 21 days with either a nonspecific or a specific HDAC6 inhibitor.

Assay [5] has as its system DRG neurons isolated from symptomatic HSPB1^S135F-expressing mice. Description: Ex vivo axonal transport of mitochondria in DRG neurons isolated from treated mice. The note with it: after three weeks of in vivo treatment. Also noted: species or system mouse. On the procedure: as §1, §5
Finally, we measured ex vivo axonal transport in DRG neurons isolated from treated mice.

For another assay, the system named is acetylated tubulin. Kind of assay: Acetylated tubulin signal along neurites of cultured DRG neurons. Type of assay: cell-based, mouse. The note with it: 12 hours incubation; 0, 0.25, 0.50 or 1.00 μM. As to the method: as §4

Entries after “also recorded” stand apart in the source; their conditions may differ.

Regarding `CC(/C=C/C(=O)NO)=C\[C@@H](C)C(=O)c1ccc(N(C)C)cc1` [TSA, Trichostatin A], in assay [1], the “level of denervation of the remaining neuromuscular junctions” value is listed as “decreased” and the “loss of acetylcholine-receptor clusters at the end plates in gastrocnemius muscle” value is reported as “restored”. Besides, in assay [2], the CMAP amplitudes result is “increased” and the SNAP amplitudes entry is “increased”. For the same compound, in assay [3], the “motor performance (accelerating rotarod)” value was “significantly increased”; the “CMT2 phenotype at the behavioral and electrophysiological levels” value is recorded as “partially restored”. Besides, in assay [4], the “number of moving mitochondria” value is on record as “restored” and the “total numbers of mitochondria” value is “increased”. In the assay on acetylated α-tubulin, the “acetylated α-tubulin amounts in spinal cord” value is on record as “also increased”, the “overall α-tubulin abundance” value is “did not affect” and the “acetylated α-tubulin amounts in peripheral nerves” value is given as “significant increase”. Also, the “number of moving mitochondria (ex vivo)” value in assay [5] is reported as “increased significantly”.
`O=C(CCCCCCC(=O)Nc1ccc([C@H]2O[C@@H](CSc3nc(-c4ccccc4)c(-c4ccccc4)o3)C[C@@H](c3ccc(CO)cc3)O2)cc1)NO` [tubacin]: in assay [4], the “effectiveness on total and moving mitochondria relative to TSA” value is reported as “more effective compared to TSA”; the “number of moving mitochondria” value is on record as “restored”; the “total numbers of mitochondria” value is given as “increased”.
In the case of `CN1CCc2c(c3ccccc3n2Cc2ccc(C(=O)NO)cc2)C1` [tubastatin A], in assay [1], the “level of denervation of the remaining neuromuscular junctions” value is recorded as “decreased” and the “loss of acetylcholine-receptor clusters at the end plates in gastrocnemius muscle” value is listed as “restored”. Further, the “acetyl-tubulin levels in vitro (integrated density along neurites)” value in the assay with acetylated tubulin was “increased”. Moreover, in assay [2], the CMAP amplitudes result is given as “increased” and the SNAP amplitudes result is listed as “increased”. In assay [3], the “motor performance (accelerating rotarod)” value is “significantly increased”; the “CMT2 phenotype at the behavioral and electrophysiological levels” value is given as “partially restored”. Besides, in assay [4] (12 hours incubation, 0, 0.25, 0.50 or 1.00 μM, eight-month-old HSPB1^S135F mice), the “axonal transport of mitochondria, dose dependence” value is listed as “dose-dependently rescued”. Also, in assay [4], the “effectiveness on total and moving mitochondria relative to TSA” value is “more effective compared to TSA”; the “number of moving mitochondria” value is given as “restored”; the “total numbers of mitochondria” value is “increased”. In the assay on acetylated α-tubulin, the “overall α-tubulin abundance” value is “did not affect” and the “acetylated α-tubulin amounts in peripheral nerves” value is given as “significant increase”. Also, in assay [5], the “mitochondrial motility, overall rescue and comparison with TSA (ex vivo)” value is reported as “more effective than TSA; also recorded: complete rescue”; the “number of moving mitochondria (ex vivo)” value is “increased significantly”; the “total number of mitochondria (ex vivo)” value was “increased”.
